Assay results taken from patent US20070149466A1, “Methods and related compositions for treating or preventing obesity, insulin resistance disorders, and mitochondrial-associated disorders” (priority 2005, published 2007).

What was measured:
[1] = tested on: HDAC; conditions: cited from earlier work; for concentration at which HDAC is inhibited: literature statements, in vitro or in vivo for SAHA, SBHA, CBHA
[2] = tested on: Zucker diabetic fatty rats; experiment: Zucker diabetic rat model, 42 days oral dosing; type: in vivo; conditions: for daily body weights / food intake: 200 mg/kg orally twice a day, 43 days, vs vehicle and other groups; for fasting serum glucose levels: day 8, 15, 22, 29, 36 and 43, 200 mg/kg orally twice a day
Description: Groups of 8 rats were used for each group (6 weeks old, 190±10 grams). […] Blood samples were collected from the retro-orbital sinus 35 minutes before glucose load (Fasting glucose) and 90 minutes post oral glucose load. Serum glucose levels were determined by means of a Hitachi Model 750 Automatic Analyzer.

[3] = tested on: mice; experiment: Hematoxylin and eosin staining of tissue sections of DIO mice; type: in vivo; conditions: 16 weeks, high fat plus 400 mg/kg/day vs control and high fat diets
Description: After collection, tissues were fixed in 4% paraformaldehyde, processed and embedded in paraffin prior to sectioning (10 microns) and staining. Tissue processing, paraffin embedding, tissue sectioning and hematoxylin and eosin staining of histological sections were carried out using standard procedures and commercially available materials (see e.g., McManus J. F. A. and Mowry, R. W., Staining Methods. Histologic and Histochemcial, Harper and Row, New York 1960; Luna L. G., Hitopathological Methods and Color Atlas of Special Stains and Tissue Artifacts, Johnson Printers, Downers Grove, Ill. 1992; Gabe M., Techniques histologiques. Masson, Paris 1968; and world wide web at statlab.com).

[4] = tested on: high fat diet fed C57BL/6J mice; experiment: Intraperitoneal and oral glucose tolerance tests in DIO mice; type: in vivo; conditions: 400 mg/kg/day, IPGTT and OGTT 2 g glucose/kg
Description: During week 10, glucose tolerance is determined by subjecting all the animals to an intraperitoneal glucose tolerance test (IPGTT). Animals are fasted for 12 h prior to this test. During week 16, glucose tolerance is analysed by performing an oral glucose tolerance test (OGTT) on a subset of animals (n=5) of groups 3, 4 and 5, and an intraperitoneal insulin sensitivity test (IPIST) on another subset of animals (n=5). During these experiments, blood is also collected to analyze insulin levels. Animals are fasted 12 h prior these tests. Intraperitoneal glucose tolerance test—Oral glucose tolerance test. IPGTT and OGTT are performed in mice which are fasted overnight (12 h). Mice are either injected intraperitoneally (IPGTT) or orally gavaged (OGTT) with a solution of 20% glucose in sterile saline (0.9% NaCl) at a dose of 2 g glucose/kg body weight. Blood is collected from the tail vein, for glucose and insulin monitoring, prior to and at 15, 30, 45, 75, 90, 120, 150, 180 min after administration of the glucose solution. The incremental area of the glucose curve is calculated as a measure of insulin sensitivity, whereas the corresponding insulin levels indicate insulin secretory reserves.

[5] = tested on: male C57BL/6J mice; experiment: Circadian (spontaneous locomotor) activity in DIO mice; type: in vivo; conditions: 400 mg/kg/day, high fat diet
Description: During week 13, circadian activity of groups 3, 4 and 5 (high fat diet fed mice) is studied during a period of […]. A circadian activity measurement is performed on groups […]. Spontaneous locomotor activity is measured using individual boxes, each composed with a sliding floor, a detachable cage, and equipped with infra-red captors allowing measurement of ambulatory locomotor activity and rears. Boxes are linked to a computer using an electronic interface (Imetronic, Pessac, France). Mice are tested for 32 h in order to measure habituation to the apparatus as well as nocturnal and diurnal activities. The quantity of water consumed is measured during the test period using an automated lickometer.

[6] = tested on: mice; experiment: Succinate dehydrogenase staining of brown adipose tissue and muscle of DIO mice; type: in vivo; conditions: 16 weeks, HF+R400 vs HF diet
Description: Succinate dehydrogenase is a marker of mitochondrial activity and produces a dark stain in the photos. Tissues were collected and immediately frozen in methylbutane, then kept at −80° C. prior to sectioning and staining. Succinate Dehydrogenase staining was carried out using standard procedures and commercially available reagents (see e.g., Reichmann H and Wildenauer D, Histochemistry, 96: 251-3 (1991)).

[7] = tested on: male C57BL/6 mice; experiment: Cold test (body temperature at 4° C.) in DIO mice; type: in vivo; conditions: 400 mg/kg/day coadministered with a high fat diet, p<0.05
Description: During week 18, a cold test is performed on all animals by measuring body temperature of animals exposed to 4° C.

[8] = tested on: mice; experiment: Serum biochemical analysis in DIO mice; type: in vivo; conditions: 16 weeks, high fat plus 400 mg/kg/day
Description: Diet induced obesity was established in mice as described above in Example 1.
The values shown are based on an average of measurements from 10 animals for each dietary group. Levels of total cholesterol, HDL-cholestrol, LDL-cholesterol, triglycerides, free fatty acids, aspartate aminotransferase […], alanine aminotransferase (ALAT), and alkaline […] (ALP) were determined using standard procedures. ASAT, ALP and ALAT were measured by kinetic UV and colour tests using methods based on the recommendations of the ‘International Federation for Clinical Chemistry’ (IFCC) on an Olympus AU-400 automated laboratory work station. AST was quantified using the OSR6109 reagent system which is based on the activity of AST that catalyzes the transamination of aspartate and 2-oxoglutarate to L-glutamate and oxalacetate. […] The decrease in absorbance due to the consumption of NADH is measured at […] and is proportional to the AST activity in the sample. ALT was quantified using the OSR6107 reagent system which is based on the activity of ALT that transfers the amino group from alanine to 2-oxoglutarate to form pyruvate and glutamate. […] As with the AST measurement, consumption of NADH is measured at […] and is proportional to the amount of ALT activity in the sample. ALP is measured by determining the rate of conversion of p-nitro-phenyl phosphate to p-nitrophenol (pNP). […]

[9] = tested on: male C57BL/6J mice; experiment: Diet induced obesity (DIO) mouse model: body weight, food intake, body fat content (dexa scanning); type: in vivo; conditions: resveratrol 400 mg/kg/day co-administered with a high fat diet
Description: The mice undergo an extensive phenotypic and molecular analysis to define the regulatory pathways affected by Sirt-1 activation.
(§1) In this long-term study, 50 male C57BL6J mice (5 weeks of age) are analyzed during a period of 18 weeks.
During the entire study, body weight and food intake
are monitored twice weekly.
During week 1, body composition is analyzed, for all groups, by dual energy X-ray absorptiometry (dexascan).
During week 12, body weight composition is again analysed by dexascan for all groups.
Diet. The standard rodent chow diet is obtained from UAR and the high fat diet is obtained from Research Diet. Mice are fed, either with chow diet (16% protein, 3% fat, 5% fiber, 5% ash) or with high fat diet (26.2% protein, 26.3% carbohydrate, 34.9% fat). Resveratrol is mixed with either powdered chow diet or powdered high fat diet and pellets are reconstituted. Control groups receive pellets as provided by the company. Due to the consistency of the high fat diet, it is not necessary to add water to mix it with the resveratrol. […]
Determination of body fat content by Dexa scanning. […] Bone mineral density (BMD in g/cm^2) and body composition are determined by using the PIXIMUS software (version 1.4x, GE Medical Systems).
The bottom panels show comparisons of body fat content, as analyzed by dexa scanning, at […] of treatment for mice in the four dietary groups. […]

[10] = tested on: PGC1 alpha; experiment: Immunoblot of PGC1 alpha acetylation in gastrocnemius muscle nuclear extracts; type: in vivo, mice; conditions: high fat diet plus 400 mg/kg resveratrol vs high fat diet, 15 weeks
Text: Following immunoprecipitation with a PGC 1 alpha antibody (Santa Cruz Biotechnology, cat #SC-13067), secondary western blots were probed with either a acetylated lysine specific monoclonal (Cell Signaling Technology, Cat #9441; top left panel) or a PGC1alpha antibody (Santa Cruz Biotechnology, cat #SC-13067; lower left panel). Exposures were scanned and the acetylation status of PGC1alpha compared to total PGC1alpha of animals on either the HF or HF+[…] is shown in the right hand panel.

[11] = Tolerability of resveratrol as a food additive; type: in vivo
Description: as §1

[12] = tested on: male C57BL/6J mice; experiment: Energy expenditure by indirect calorimetry (oxygen consumption) in DIO mice; type: in vivo; conditions: 400 mg/kg/day co-administrated with a high fat diet
Description: Nocturnal energy expenditure of groups 1, 3 and 5 (chow diet, high fat diet and high fat diet 400 mg) is measured by indirect calorimetry. Energy expenditure. Energy expenditure is evaluated through indirect calorimetry by measuring oxygen consumption with the Oxymax apparatus (Columbus Instruments, Columbus, Ohio) during 12 h. This system consists of an open circuit with air coming in and out of plastic cages (one mouse per cage). Animals are allowed free access to food and water. A very precise CO2 and O2 sensor measures the difference in O2 and CO2 concentrations in both air volumes, which gives the amount of oxygen consumed in a period of time given that the air flow of air coming in the cage is constant. The data coming out of the apparatus are processed in a connected computer, analyzed, and shown in an exportable Excel file. The values are expressed as ml.kg^−1.h^−1, which is commonly known as the VO2.

[13] = tested on: mice; experiment: Transmission electron microscopy of gastrocnemius muscle and brown adipose tissue of DIO mice; type: in vivo; conditions: 16 weeks
Description: Transmission electron microscopy was carried out using standard techniques as described below. The mitochondria can be seen as the darker oblong Z lines crossing the I lines.
Transmission electron microscopy was carried out using standard techniques as described below. Fat droplets may be observed at either magnification as white or light gray droplets and mitochondria can be observed at the higher magnification as roundish striated structures.
Transmission Electronic Microscopy/Preparation of Samples: The biopsies of gastrocnemius muscle and brown adipose tissue were cut in pieces of 1 mm and fixed immediately after collection in Kamovsky fixative (glutaraldehyde in cacodylate buffer) and kept at 4° C. without time limitation. The second step is the post-fixation with 1% osmium tetraoxide in 0.1M cacodylate buffer for 1 h at 4° C. Tissues were then dehydrated through successive baths of graded alcohol followed by a propylene oxide bath, and then a treatment with a propylene oxide and resine mix before to be embedded in a pure epoxy resine (araldite, Epon 812) which becomes solid after 48 h at 60° C. Semithin sections were cut at 2 μm and stained with toluidine blue, and histologically analysed by light microscopy. Ultrathin sections were cut at 70 nm and contrasted with uranyl acetate and lead citrate, and examined with a Philips 208 electron microscope.

[14] = high fat diet plus 400 mg/kg/day resveratrol

O=C(/C=C/c1cccc(C(=O)NO)c1)NO [CBHA, m-carboxy-cinnamic acid bishydroxamic acid]
concentration at which HDAC is inhibited [1]: micromolar concentration or lower

C/C=C1\NC(=O)[C@H]2CSSCC/C=C/[C@H](CC(=O)N[C@H](C(C)C)C(=O)N2)OC(=O)[C@H](C(C)C)NC1=O [Depsipeptide]
concentration at which HDAC is inhibited [1]: micromolar concentrations

CN(C)C(=N)N=C(N)N [metformin, reference compound]
daily body weights [2]: no statistical difference | food intake [2]: no statistical difference | fasting serum glucose levels [2]: no difference

Oc1ccc(/C=C/c2cc(O)cc(O)c2)cc1 [resveratrol, 3,5,4′-Trihydroxy-trans-stilbene]
daily body weights [2]: no statistical difference | food intake [2]: no statistical difference | fasting serum glucose levels [2]: no difference | histological changes (liver, epididymal WAT, BAT, gastrocnemius muscle; hematoxylin and eosin) [3]: few histological changes | glucose tolerance [4]: increases glucose tolerance | circadian locomotor activity [5]: significantly diminishes the circadian locomotor activity | succinate dehydrogenase staining (marker of mitochondrial activity), brown adipose tissue [6]: significantly higher | succinate dehydrogenase staining (marker of mitochondrial activity), gastrocnemius [6]: significantly higher | succinate dehydrogenase staining, soleus [6]: little change | adaptive thermogenesis (body temperature during 6 h cold test) [7]: enhances adaptive thermogenesis | serum biochemical markers (total, HDL and LDL cholesterol, triglycerides, free fatty acids, ASAT, ALAT, ALP) [8]: fell within the normal range | diet-induced obesity [9]: prevents diet-induced obesity | PGC1 alpha deacetylation [10]: increases PGC1 alpha deacetylation | food aversion [11]: does not cause food aversion | tolerability [11]: well tolerated | energy expenditure [12]: increases energy expenditure | mitochondria in gastrocnemius muscle (non-oxidative fibers), transmission electron microscopy ([13]; HF+R400 vs control or high fat diets): more mitochondria | fat droplets in brown adipose tissue, transmission electron microscopy [13, 14]: smaller fat droplets | mitochondria in brown adipose tissue, transmission electron microscopy [13, 14]: more mitochondria

depudecin
concentration at which HDAC is inhibited [1]: micromolar concentrations

trichostatin A [TSA]
inhibition of mammalian HDAC ([1]; Yoshida et al. (1990)): potent inhibitor
